Assay results published in the METLIN SMRT retention time set (Domingo-Almenara et al. 2019).

Test: gradient 5% acetonitrile 3 min, to 50% in 2 min, to 85% in 15 min, held 3 min, 100 µL/min
Settings: column: Zorbax Extend-C18 2.1 x 50 mm; eluents: water / acetonitrile, 0.1% formic acid
In short: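 Retention times come from adduct peaks that were picked computationally and then checked by hand. The standards, pure and pooled in mixtures of ~100 molecules, were run on a Zorbax Extend-C18 column (2.1 × 50 mm, 1.8 μm) at 100 μL/min with water and acetonitrile, each with 0.1% formic acid. Detection was by quadrupole time-of-flight mass spectrometry in positive and negative ionization mode, with a dead volume of 40 μL and a dwell volume of 900 μL.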

RP-LC retention time [s] | SMILES
1090 | CCN(CC)c1nc2cc(C(=O)OC)ccc2c(=O)n1-c1cc(OC)cc(OC)c1
552 | COC(=O)c1ccc(CNC2CCN(c3ccc(C(=O)NC4CC4)cn3)C2)cc1 (centres undefined)
842 | COC(=O)c1ccc(N2C=C(C(=O)N3CCCC3)S(=O)(=O)c3ccc(Cl)cc32)cc1
763 | Cn1nc(-c2ccc(NC(=O)c3cccc4ccccc34)cc2)ccc1=O
601 | CCc1cc(N2CCN(C(=O)COc3ccccc3OC)CC2)nc2nncn12
641 | O=C(NCCc1ccncc1)C1CN(S(=O)(=O)c2ccccc2)CC12CCCCC2 (centres undefined)
1160 | CCc1ccc(Oc2cc(N3CCC(C(=O)Nc4ccc(C)c(C)c4)CC3)ncn2)cc1
528 | c1cc(CN2CCCCC2)ccc1CC1CCNCC1
598 | CCS(=O)(=O)Nc1ccc(S(=O)(=O)Nc2nc(C)cc(C)n2)cc1
1130 | CCN(CC)S(=O)(=O)c1cc(-c2nnc(-c3ccccc3Cl)o2)ccc1C
936 | Cn1nc(-c2nnc(-c3ccc(F)cc3)o2)c2c1CCN(C(=O)Nc1ccc(Cl)cc1)C2
828 | Cc1nn(CC(=O)NC2CC2)c(=O)c2c(-n3cccc3)n(-c3cccc(F)c3)nc12
657 | O=C(NCC1(N2CCOCC2)CCOC1)Nc1cc(Cl)cc(Cl)c1 (centres undefined)
701 | O=C(CN1CCN(C(=O)Nc2ccc(Br)cc2)CC1=O)N1CCCCC1
629 | O=C(N1CCN(S(=O)(=O)c2cccnc2)CC1)N1C[C@H]2C[C@H](C1)[C@H]1CCCC(=O)N1C2
882 | CCOc1ccc(-n2nnc(C(=O)OC)c2C(=O)OC)cc1
703 | CCNC(=O)C1CCCN(c2nc3ncn(CC(=O)Nc4c(C)cccc4CC)c(=O)c3s2)C1 (centres undefined)
903 | Cc1noc(-c2ccnc(-n3cnc(C(=O)NCc4ccc(Cl)cc4)c3)c2)n1
832 | COc1ccc(NC(=O)Cn2c(=O)n(-c3ccc(F)cc3)c(=O)c3c2cc(C)n3C)c(OC)c1
1000 | CCOC(=O)c1oc2ccc(S(=O)(=O)N3CCC(c4noc(C5CC5)n4)C3)cc2c1C (centres undefined)
605 | CN1CCCN(C(=O)C2CN(S(=O)(=O)c3cccnc3)CC23CCCCC3)CC1 (centres undefined)

RP-LC retention time [s] | SMILES
650 | CCc1nncn1C1CCN(S(=O)(=O)c2ccc(OC)c(OC)c2)CC1
775 | O=S(=O)(c1cc(-c2cc(C(F)(F)F)on2)cs1)N1CCN(C2CCCCC2)CC1
784 | O=C(Nc1cccc(F)c1)N1CCN(Cc2nc3ccc(Cl)cc3o2)CC1
726 | c1ccc(CCc2nc3nccc(-c4cccnc4)n3n2)cc1
1090 | COc1cc(OC)cc(-c2nc(-c3cn(-c4cccc(F)c4)nn3)no2)c1
843 | CC(C)Sc1ccc2nn(CC(=O)Nc3ccc(Br)cc3F)c(=O)n2n1
734 | COc1cccc(CNC(=O)C2CCCN(c3ncnc4c3oc3ccccc34)C2)c1 (centres undefined)
789 | Cc1nnc(N2CCCC(C(=O)NCCc3ccccc3)C2)c2nn(-c3ccc(Cl)cc3)c(C)c12 (centres undefined)
611 | CCCNC(=O)N(C1CCOCC1)C1CCN(C(=O)c2cnccn2)CC1
725 | COCCN1C(=O)Cc2ccccc2C1C(=O)N1CCCCC1 (centres undefined)
972 | Cc1ccc(NC(=O)N(C)CCc2noc(COc3cccc(C)c3)n2)cc1
788 | CCOc1ccc(OCC)c(NC(=O)CCc2c(-c3ccc(Cl)cc3)nc3ccccn23)c1
880 | COc1ccc(NC(=O)N2CCCC2C(=O)Nc2ccc(C)c(Cl)c2)cc1 (centres undefined)
778 | COc1ccc(OC)c(NC(=O)C2CCN(S(=O)(=O)c3cn(C(C)C)cn3)CC2)c1
768 | COc1ccc(NC(=O)Cn2c(=O)nc(N3CCC(C)CC3)c3ccccc32)cc1OC
1040 | Cc1nc(-c2ccc(OCC(C)C)c(C#N)c2)sc1C(=O)O
628 | CC(C(=O)NCc1cccs1)S(=O)(=O)c1ccc2c(c1)S(=O)(=O)N=CN2 (centres undefined)
1190 | O=C(Nc1ccc(F)cc1)C1CCCN(c2nc3ccccc3nc2C(F)(F)F)C1 (centres undefined)
857 | CCNC(=O)N1CCc2c([nH]c3ccccc23)C12C(=O)N(C)c1ccc(Br)cc12 (centres undefined)
616 | CC(NC(=O)C1CCN(CCc2cn(C)c3ncccc23)CC1)c1ccc(F)cc1 (centres undefined)
1100 | O=C(Cn1cccc1-c1nc(-c2ccc3c(c2)OCO3)no1)Nc1ccc(F)c(F)c1

RP-LC retention time [s] | SMILES
746 | CCOc1ccc(Nc2c(-c3cccc(O)c3)nc3cnccn23)cc1
759 | Cc1cc(F)ccc1NC(=O)C1CCN(S(=O)(=O)c2cc(C(=O)N3CCOCC3)cs2)CC1
960 | CC(C)c1ccc(C(=O)Nc2cc(-c3ccccn3)no2)cc1
1310 | CC(C)(C)c1ccc(C(=O)Nc2nc(-c3ccc(F)cc3)cs2)cc1
714 | O=C(Nc1cnc(N2CCCCCC2)nc1)C1CC1
604 | O=C(C1CCCN(c2ncnc3c2nc2n3CCCCC2)C1)N1CCN(C2CCCCC2)CC1 (centres undefined)
726 | Cc1ccc(CNC(=O)C2CCCN(c3nnc(C)c4c(C)n(-c5ccccc5)nc34)C2)cc1 (centres undefined)
620 | COCC(=O)Nc1cc(-c2nc3ccc(C)cc3[nH]2)ccc1C
707 | Cc1ccc(CN2CCC(CNC(=O)c3sc4ncccc4c3-n3cccc3)C2)cc1 (centres undefined)
849 | Cc1ccc(NC(=O)c2c(C)oc3nc(C)nc(N4CCOCC4)c23)c(C)c1
873 | COc1ccccc1OCC(=O)Nc1ccc2c(c1)C(=O)Nc1cc(Cl)ccc1O2
769 | c1ccc(CN2CCN(c3ncccc3-c3nc(-c4ccccc4)no3)CC2)cc1
850 | O=C(Nc1ccc2c(c1)N(C(=O)c1ccco1)CCC2)Oc1ccccc1
720 | CCN(c1cccc(C)c1)S(=O)(=O)c1cc2n(c1)CCCNC2=O
850 | Cc1ccc(C(=O)N2CCN(S(=O)(=O)c3cc4c5c(c3)CCC(=O)N5CCC4)CC2)cc1C
1210 | Cc1cccc(S(=O)(=O)N2CCc3nc(-c4ccc(Cl)cc4)ncc3C2)c1
854 | COc1ccc(-c2nc(CSc3nc4ccccc4n4c(C)nnc34)c(C)o2)cc1
960 | O=C(CN1c2ccc(F)cc2-c2ccccc2S1(=O)=O)NCCc1ccccc1
960 | COc1ccc(-c2noc(C3CCCN3C(=O)c3c(OC)cccc3OC)n2)cc1 (centres undefined)
839 | O=C(CSc1nnc2scc(-c3ccc(Cl)cc3)n12)Nc1ccccc1F
672 | Cc1cccc(-c2nnc(-c3nc(NCCc4cnc[nH]4)c4ccccc4n3)o2)c1

SMILES | RP-LC retention time [s]
CCCn1cc(C(=O)NC(C)c2ccc(OC)cc2)c2cccnc21 (centres undefined) | 869
